These results are taken from PubChem BioAssay (NCI).

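Grown in 96-well plates, cells were treated for 48 hours with each compound at five concentrations. Insufficient inhibition: endpoint recorded as highest concentration tested. At the GI50, growth is halved. TGI denotes the concentration required for complete inhibition of growth.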

Test systems include MCF7 breast; OVCAR-5 ovarian; CAKI-1 renal; NCI-H23 lung; UO-31 renal; RXF 393 renal; NCI-H522 lung; BT-549 breast; EKVX NSCLC; OVCAR-8 ovarian.
Holding throughout (assay): DTP human tumour cell line panel, 48 h

By GI50 is commonly meant the concentration giving 50% growth inhibition. In general, TGI refers to the concentration at which net growth stops. On to `COC(=O)[C@@H](C)C[C@H](Cc1ccccc1)NC(=O)c1nc([C@@H](C[C@H](C(C)C)N(C)C(=O)[C@@H](NC(=O)[C@H]2C[C@H](O)CCN2C)C(C)C)OC(C)=O)sc1C(C)C`, for which the 50% growth inhibitory concentration (GI50) with MCF7 breast is below 0.00111 µM; in the experiment on OVCAR-5 ovarian, 0.0428 µM; in the experiment with CAKI-1 renal, 0.115 µM; in the experiment with NCI-H23 lung it was 0.0232 µM; with UO-31 renal, 0.504 µM; in the experiment on RXF 393 renal, 0.025 µM. Besides, the GI50 was 0.00186 µM with NCI-H522 lung, 0.00416 µM with BT-549 breast, 0.161 µM in the experiment with EKVX NSCLC and 0.0193 µM with OVCAR-8 ovarian. In addition, the TGI in the experiment with MCF7 breast is above 11.1 µM; in the experiment on OVCAR-5 ovarian, above 11.1 µM; with CAKI-1 renal, above 9.69 µM; in the experiment on NCI-H23 lung it was above 11.1 µM; with UO-31 renal, above 11.1 µM; in the experiment on RXF 393 renal it was above 11.1 µM. Besides, the TGI in the experiment with BT-549 breast is 0.131 µM; in the experiment with EKVX NSCLC it was above 11.1 µM; in the experiment with OVCAR-8 ovarian, above 11.1 µM.

As to `O=C(CCCc1ccc(N(CCCl)CCCl)cc1)NCc1ccccc1`, the GI50 in the experiment with MCF7 breast was 3.08 µM; with OVCAR-5 ovarian it was 33.1 µM; in the experiment on CAKI-1 renal it was 2.33 µM; with NCI-H23 lung, 4.77 µM; in the experiment with UO-31 renal, 5.43 µM; in the experiment on RXF 393 renal, 10.5 µM. Moreover, the GI50 was 6.42 µM in the experiment with NCI-H522 lung, 3.86 µM with BT-549 breast, 21.6 µM in the experiment with EKVX NSCLC and 8.11 µM in the experiment on OVCAR-8 ovarian. The TGI in the experiment with MCF7 breast was above 100 µM; in the experiment with OVCAR-5 ovarian, above 100 µM; in the experiment on CAKI-1 renal it was 14.4 µM; with NCI-H23 lung, 33.1 µM; in the experiment with UO-31 renal, 39.1 µM; in the experiment on RXF 393 renal, 25.2 µM. The TGI with NCI-H522 lung is 24.5 µM; in the experiment with BT-549 breast, 27.2 µM; in the experiment on EKVX NSCLC, 91.5 µM; with OVCAR-8 ovarian, above 100 µM.

In the case of `COC(=O)N[C@H]1CCc2cc(OC)c(OC)c(OC)c2-c2ccc(SC)c(=O)cc21`, the GI50 in the experiment on MCF7 breast is below 0.01 µM; in the experiment with OVCAR-5 ovarian it was below 0.01 µM; in the experiment with CAKI-1 renal, below 0.0166 µM; in the experiment on NCI-H23 lung it was below 0.01 µM; in the experiment with UO-31 renal it was below 0.0447 µM; with RXF 393 renal, below 0.01 µM. Moreover, the GI50 in the experiment with NCI-H522 lung, in the experiment with BT-549 breast, in the experiment on EKVX NSCLC and in the experiment with OVCAR-8 ovarian was below 0.01 µM in each case. Also, the TGI in the experiment on MCF7 breast, in the experiment on OVCAR-5 ovarian, in the experiment on CAKI-1 renal, in the experiment on NCI-H23 lung, with UO-31 renal and with RXF 393 renal was above 100 µM in each case. Besides, the TGI was above 19.9 µM with NCI-H522 lung, 11 µM in the experiment with BT-549 breast, above 100 µM in the experiment on EKVX NSCLC and above 100 µM with OVCAR-8 ovarian.

With `O=P1(NCCCl)OCCCN1CCCl` (configuration not stated), the total growth inhibition concentration (TGI) in the experiment with MCF7 breast is 388 µM; in the experiment with OVCAR-5 ovarian it was 453 µM; in the experiment with CAKI-1 renal it was 341 µM; in the experiment with NCI-H23 lung, 454 µM; with UO-31 renal, 441 µM; with RXF 393 renal it was 445 µM. Further, the TGI is 360 µM in the experiment with NCI-H522 lung, above 500 µM in the experiment with BT-549 breast, 447 µM in the experiment with EKVX NSCLC and 439 µM in the experiment on OVCAR-8 ovarian.

Turning to `CC(=O)OCC1C(=O)OCC1C(=O)N1Cc2cc3ccccc3nc2C1` (configuration not stated), the TGI worked out at 3.14 µM with MCF7 breast; 15.8 µM in the experiment with OVCAR-5 ovarian; 3.16 µM in the experiment with CAKI-1 renal; 14.5 µM in the experiment with NCI-H23 lung; 8.15 µM in the experiment on UO-31 renal; 2.57 µM in the experiment on RXF 393 renal. For the same molecule, the TGI with NCI-H522 lung turned out to be 2.23 µM; in the experiment with BT-549 breast, 6.71 µM; with EKVX NSCLC it was 17.3 µM; in the experiment on OVCAR-8 ovarian, 11.5 µM.

In the case of `Nc1c(C(=O)Nc2cccc(Cl)c2)sc2nc3c(cc12)C(=O)CCC3`, the GI50 was 0.201 µM in the experiment on MCF7 breast; 2.09 µM in the experiment on OVCAR-5 ovarian; 0.438 µM in the experiment with CAKI-1 renal; 0.751 µM in the experiment on NCI-H23 lung; 0.479 µM in the experiment with RXF 393 renal; 0.19 µM in the experiment on NCI-H522 lung. The GI50 in the experiment with BT-549 breast is 0.948 µM; in the experiment with OVCAR-8 ovarian, above 41.3 µM. In addition, the TGI in the experiment with MCF7 breast is above 100 µM; with OVCAR-5 ovarian, above 100 µM; with CAKI-1 renal it was above 100 µM; with NCI-H23 lung, above 100 µM; in the experiment on UO-31 renal it was above 100 µM; in the experiment with RXF 393 renal, above 42.2 µM. Further, the concentration for total growth inhibition (TGI) with NCI-H522 lung was 0.788 µM; in the experiment with BT-549 breast it was above 100 µM; in the experiment on EKVX NSCLC it was above 100 µM; with OVCAR-8 ovarian, above 100 µM.

On to `O=C(O)c1ccc(N(/C=C/C(=O)C(F)(F)F)Cc2ccc(Cl)cc2)cc1`, for which the GI50 with MCF7 breast is above 100 µM; in the experiment with OVCAR-5 ovarian, 44.6 µM; in the experiment with CAKI-1 renal it was 34.6 µM; with NCI-H23 lung, 24.7 µM; in the experiment on UO-31 renal it was 1.19 µM; in the experiment on RXF 393 renal, 46.3 µM. Further, the GI50 in the experiment with NCI-H522 lung was 19.9 µM; with BT-549 breast it was 38.7 µM; in the experiment on EKVX NSCLC it was 19.6 µM; with OVCAR-8 ovarian it was 26.1 µM. Also, the TGI in the experiment with MCF7 breast was above 100 µM; in the experiment with OVCAR-5 ovarian it was above 100 µM; in the experiment on CAKI-1 renal it was above 100 µM; in the experiment on NCI-H23 lung, 64.8 µM; in the experiment on UO-31 renal, 15.7 µM; with RXF 393 renal, above 100 µM. Further, the TGI in the experiment on NCI-H522 lung was 61.9 µM; in the experiment on BT-549 breast it was 67 µM; in the experiment with EKVX NSCLC, 47.9 µM; with OVCAR-8 ovarian, 78.4 µM.

Consider `Sc1cccc2cccnc12`, for which the GI50 in the experiment with MCF7 breast is 0.484 µM; in the experiment with OVCAR-5 ovarian it was 4.1 µM; in the experiment with CAKI-1 renal, 1.67 µM; in the experiment on NCI-H23 lung it was 1.91 µM; in the experiment on UO-31 renal, 0.616 µM; with RXF 393 renal, 1.4 µM. For the same molecule, the GI50 in the experiment on NCI-H522 lung is 2.13 µM; in the experiment on BT-549 breast, 1.46 µM; in the experiment with EKVX NSCLC, 1.31 µM; in the experiment on OVCAR-8 ovarian, 0.537 µM. For the same molecule, the TGI came out at 11.6 µM in the experiment on MCF7 breast; 17.7 µM with OVCAR-5 ovarian; 14.5 µM with CAKI-1 renal; 16.8 µM in the experiment with NCI-H23 lung; 11.9 µM in the experiment with UO-31 renal; 8.28 µM in the experiment with RXF 393 renal. Besides, the TGI in the experiment on NCI-H522 lung was 5.66 µM; with BT-549 breast, 12.4 µM; in the experiment with EKVX NSCLC it was 12.9 µM; in the experiment with OVCAR-8 ovarian it was 15.3 µM.
